Laboratory results published in ChEMBL document CHEMBL3991601, “The target landscape of clinical kinase drugs” (Science, 2017).
pKd: −log10 of the molar value. Activity calls are given as the source filed them. Cut-off read from the data, not from the text of the source, for most assays here: actives have a measured Kd and inactives only a lower limit.

Experiments:
[1] = target: Protein kinase C alpha type (Homo sapiens, UniProt P17252)
[2] = target: T1, Delta(24)-sterol reductase (Homo sapiens, UniProt Q15392)
T1 sequence (Q15392 whole entry): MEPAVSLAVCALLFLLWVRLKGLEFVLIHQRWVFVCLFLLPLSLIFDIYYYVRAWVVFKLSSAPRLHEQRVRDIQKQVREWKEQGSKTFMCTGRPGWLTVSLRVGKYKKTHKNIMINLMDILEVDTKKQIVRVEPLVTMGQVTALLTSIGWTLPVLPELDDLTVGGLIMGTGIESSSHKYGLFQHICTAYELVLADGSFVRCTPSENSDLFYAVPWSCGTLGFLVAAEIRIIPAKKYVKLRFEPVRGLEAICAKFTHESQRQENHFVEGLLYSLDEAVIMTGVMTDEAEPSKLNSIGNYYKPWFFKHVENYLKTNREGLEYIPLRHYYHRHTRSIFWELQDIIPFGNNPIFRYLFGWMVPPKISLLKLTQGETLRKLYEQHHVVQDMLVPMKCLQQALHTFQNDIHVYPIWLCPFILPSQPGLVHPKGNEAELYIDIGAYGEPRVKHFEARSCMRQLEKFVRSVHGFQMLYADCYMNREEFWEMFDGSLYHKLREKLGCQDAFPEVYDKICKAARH

[3] = target: Protein-tyrosine kinase 6 (Homo sapiens, UniProt Q13882)
Sequence of Protein-tyrosine kinase 6 (Q13882 whole entry): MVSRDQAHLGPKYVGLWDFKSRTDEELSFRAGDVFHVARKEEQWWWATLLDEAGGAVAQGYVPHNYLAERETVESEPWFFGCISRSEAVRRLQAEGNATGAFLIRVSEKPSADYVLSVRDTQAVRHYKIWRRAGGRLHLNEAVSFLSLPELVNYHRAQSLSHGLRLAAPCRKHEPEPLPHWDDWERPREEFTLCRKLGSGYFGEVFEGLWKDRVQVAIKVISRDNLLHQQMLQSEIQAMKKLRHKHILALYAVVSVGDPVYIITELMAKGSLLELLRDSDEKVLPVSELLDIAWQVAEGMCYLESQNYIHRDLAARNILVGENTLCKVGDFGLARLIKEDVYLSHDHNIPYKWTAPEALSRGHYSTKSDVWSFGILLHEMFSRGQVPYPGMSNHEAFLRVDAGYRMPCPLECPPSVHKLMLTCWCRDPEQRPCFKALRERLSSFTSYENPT

[4] = target: T2, Very long-chain specific acyl-CoA dehydrogenase, mitochondrial (Homo sapiens, UniProt P49748)
T2 sequence (P49748 whole entry): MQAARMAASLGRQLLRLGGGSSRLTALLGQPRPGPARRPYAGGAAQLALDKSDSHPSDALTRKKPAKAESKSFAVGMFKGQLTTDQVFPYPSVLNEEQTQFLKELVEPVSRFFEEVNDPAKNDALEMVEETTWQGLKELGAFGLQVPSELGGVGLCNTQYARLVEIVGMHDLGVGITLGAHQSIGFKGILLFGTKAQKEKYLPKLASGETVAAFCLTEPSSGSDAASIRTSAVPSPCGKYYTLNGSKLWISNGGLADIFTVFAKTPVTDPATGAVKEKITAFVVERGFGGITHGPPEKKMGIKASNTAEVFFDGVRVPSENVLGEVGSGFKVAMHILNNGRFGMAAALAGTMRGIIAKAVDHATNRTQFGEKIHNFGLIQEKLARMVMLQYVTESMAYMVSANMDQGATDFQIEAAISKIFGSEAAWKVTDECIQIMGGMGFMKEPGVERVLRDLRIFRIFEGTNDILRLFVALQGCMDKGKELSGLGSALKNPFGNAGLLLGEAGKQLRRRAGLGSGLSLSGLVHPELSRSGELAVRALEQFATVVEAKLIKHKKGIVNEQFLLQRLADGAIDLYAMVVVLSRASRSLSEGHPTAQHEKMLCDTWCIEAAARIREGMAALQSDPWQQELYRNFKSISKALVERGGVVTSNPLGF

Focal adhesion kinase 1 = Focal adhesion kinase 1 (Homo sapiens, UniProt Q05397)
Sequence of Focal adhesion kinase 1 (Q05397 whole entry): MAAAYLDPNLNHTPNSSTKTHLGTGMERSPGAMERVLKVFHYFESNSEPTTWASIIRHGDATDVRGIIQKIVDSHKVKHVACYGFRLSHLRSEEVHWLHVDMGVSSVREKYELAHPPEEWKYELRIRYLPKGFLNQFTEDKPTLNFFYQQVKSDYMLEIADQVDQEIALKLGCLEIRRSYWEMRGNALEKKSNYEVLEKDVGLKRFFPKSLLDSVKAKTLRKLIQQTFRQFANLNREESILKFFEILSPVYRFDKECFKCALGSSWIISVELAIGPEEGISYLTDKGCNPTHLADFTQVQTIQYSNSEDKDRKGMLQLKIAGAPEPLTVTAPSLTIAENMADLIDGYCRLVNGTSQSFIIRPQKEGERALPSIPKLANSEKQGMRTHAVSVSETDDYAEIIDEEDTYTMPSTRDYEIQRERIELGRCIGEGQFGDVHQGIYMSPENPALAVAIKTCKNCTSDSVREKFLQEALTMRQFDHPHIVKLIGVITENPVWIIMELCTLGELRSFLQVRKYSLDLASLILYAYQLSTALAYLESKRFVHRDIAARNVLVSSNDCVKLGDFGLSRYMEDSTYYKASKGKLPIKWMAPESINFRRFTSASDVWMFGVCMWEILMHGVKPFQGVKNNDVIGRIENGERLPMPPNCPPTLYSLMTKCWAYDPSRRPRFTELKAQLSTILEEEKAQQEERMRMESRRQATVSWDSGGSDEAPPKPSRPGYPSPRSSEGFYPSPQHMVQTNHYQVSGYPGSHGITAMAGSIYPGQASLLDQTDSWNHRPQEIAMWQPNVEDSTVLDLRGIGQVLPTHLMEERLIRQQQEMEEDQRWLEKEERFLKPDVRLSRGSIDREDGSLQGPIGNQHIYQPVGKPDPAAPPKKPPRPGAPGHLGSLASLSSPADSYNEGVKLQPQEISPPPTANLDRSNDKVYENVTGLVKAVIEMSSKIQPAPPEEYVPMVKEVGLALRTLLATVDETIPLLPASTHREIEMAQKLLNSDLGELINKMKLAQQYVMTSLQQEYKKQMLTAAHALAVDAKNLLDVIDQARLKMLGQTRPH

[5] = target: Mitogen-activated protein kinase kinase kinase kinase 5 (Homo sapiens, UniProt Q9Y4K4)
Sequence of Mitogen-activated protein kinase kinase kinase kinase 5 (Q9Y4K4 whole entry): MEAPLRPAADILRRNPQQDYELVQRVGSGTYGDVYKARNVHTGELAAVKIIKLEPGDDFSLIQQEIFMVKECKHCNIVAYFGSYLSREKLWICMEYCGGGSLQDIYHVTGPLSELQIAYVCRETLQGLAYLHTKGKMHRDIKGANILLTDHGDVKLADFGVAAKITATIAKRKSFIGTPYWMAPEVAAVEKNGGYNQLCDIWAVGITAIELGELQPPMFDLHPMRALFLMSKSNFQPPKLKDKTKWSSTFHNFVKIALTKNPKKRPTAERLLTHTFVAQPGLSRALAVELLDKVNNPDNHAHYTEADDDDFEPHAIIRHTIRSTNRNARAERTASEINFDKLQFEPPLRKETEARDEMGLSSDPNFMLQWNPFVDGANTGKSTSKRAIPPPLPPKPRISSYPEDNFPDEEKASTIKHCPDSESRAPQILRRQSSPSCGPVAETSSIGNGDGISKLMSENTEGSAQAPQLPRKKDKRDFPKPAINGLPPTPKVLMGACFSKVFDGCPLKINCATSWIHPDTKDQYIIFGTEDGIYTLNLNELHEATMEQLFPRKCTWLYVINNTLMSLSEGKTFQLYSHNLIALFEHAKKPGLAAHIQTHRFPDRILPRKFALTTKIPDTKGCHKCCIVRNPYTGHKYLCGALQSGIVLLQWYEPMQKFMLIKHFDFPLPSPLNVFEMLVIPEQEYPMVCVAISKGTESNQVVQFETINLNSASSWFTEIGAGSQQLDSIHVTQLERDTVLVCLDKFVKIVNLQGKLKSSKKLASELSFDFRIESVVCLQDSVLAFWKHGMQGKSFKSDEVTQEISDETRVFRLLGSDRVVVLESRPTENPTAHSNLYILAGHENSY

Ephrin type-B receptor 3 = target: T3, Ephrin type-B receptor 3 (Homo sapiens, UniProt P54753)
T3 sequence (P54753 whole entry): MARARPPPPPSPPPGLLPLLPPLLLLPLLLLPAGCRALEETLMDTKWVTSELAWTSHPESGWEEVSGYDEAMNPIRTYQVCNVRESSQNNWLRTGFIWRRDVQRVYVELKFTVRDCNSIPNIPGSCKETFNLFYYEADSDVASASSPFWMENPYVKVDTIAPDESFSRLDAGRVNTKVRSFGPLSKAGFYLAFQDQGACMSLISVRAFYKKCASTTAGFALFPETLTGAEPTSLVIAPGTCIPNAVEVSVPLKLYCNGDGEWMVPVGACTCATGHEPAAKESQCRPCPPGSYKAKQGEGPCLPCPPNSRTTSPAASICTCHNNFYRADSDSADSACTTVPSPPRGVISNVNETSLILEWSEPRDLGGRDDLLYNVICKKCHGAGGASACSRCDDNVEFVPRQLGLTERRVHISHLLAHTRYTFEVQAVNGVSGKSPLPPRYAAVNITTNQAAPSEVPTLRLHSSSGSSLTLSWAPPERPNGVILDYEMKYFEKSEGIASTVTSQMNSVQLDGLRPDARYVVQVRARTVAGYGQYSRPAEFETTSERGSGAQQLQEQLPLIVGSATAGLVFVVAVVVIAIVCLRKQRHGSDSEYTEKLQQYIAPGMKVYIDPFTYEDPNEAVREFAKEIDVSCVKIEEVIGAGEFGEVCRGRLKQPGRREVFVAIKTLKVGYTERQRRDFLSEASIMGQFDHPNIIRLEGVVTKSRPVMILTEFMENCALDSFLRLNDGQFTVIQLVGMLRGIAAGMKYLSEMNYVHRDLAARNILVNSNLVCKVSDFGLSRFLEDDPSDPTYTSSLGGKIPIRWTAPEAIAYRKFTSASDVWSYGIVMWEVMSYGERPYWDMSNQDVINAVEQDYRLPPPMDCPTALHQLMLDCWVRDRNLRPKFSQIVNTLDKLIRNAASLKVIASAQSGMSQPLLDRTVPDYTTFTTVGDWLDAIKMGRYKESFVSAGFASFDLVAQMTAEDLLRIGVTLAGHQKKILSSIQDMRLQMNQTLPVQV

[6] = target: T4, Serine/threonine-protein kinase ICK (Homo sapiens, UniProt Q9UPZ9)
T4 sequence (Q9UPZ9 whole entry): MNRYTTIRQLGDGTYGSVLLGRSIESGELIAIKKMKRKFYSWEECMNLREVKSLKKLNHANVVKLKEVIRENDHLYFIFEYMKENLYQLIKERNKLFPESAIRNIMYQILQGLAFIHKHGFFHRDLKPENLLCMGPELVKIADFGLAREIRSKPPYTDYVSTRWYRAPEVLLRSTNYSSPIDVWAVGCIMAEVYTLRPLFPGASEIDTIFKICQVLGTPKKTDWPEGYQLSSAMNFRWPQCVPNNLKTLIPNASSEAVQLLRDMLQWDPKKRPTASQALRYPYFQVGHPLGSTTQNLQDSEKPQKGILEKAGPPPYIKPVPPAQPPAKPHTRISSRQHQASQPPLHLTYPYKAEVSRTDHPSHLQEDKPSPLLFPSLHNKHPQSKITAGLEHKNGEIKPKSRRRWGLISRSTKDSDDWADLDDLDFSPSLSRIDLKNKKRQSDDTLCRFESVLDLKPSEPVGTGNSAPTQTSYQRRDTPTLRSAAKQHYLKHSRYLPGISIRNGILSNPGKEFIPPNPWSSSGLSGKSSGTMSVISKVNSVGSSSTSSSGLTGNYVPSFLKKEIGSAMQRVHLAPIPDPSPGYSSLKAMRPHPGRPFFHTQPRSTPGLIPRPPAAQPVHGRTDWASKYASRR
Note: in the data inactive means no Kd found up to 30 µM.

Row | Compound | Kd [1] | Kd [2] | Kd [3] | Kd [4] | Kd (Focal adhesion kinase 1) | Kd [5] | Kd (Ephrin type-B receptor 3) | Kd [6] | pKd (Ephrin type-B receptor 3)
1 | CN(C)C(=O)c1cc2cnc(Nc3ccc(N4CCNCC4)cn3)nc2n1C1CCCC1 [RIBOCICLIB] | > 30 µM (inactive) | > 30 µM (inactive) | > 30 µM (inactive) | > 30 µM (inactive) | > 30 µM (inactive) | > 30 µM (inactive) | > 30 µM (inactive) | > 30 µM (inactive) | –
2 | O=C1NC(=O)/C(=C/c2ccc3nccc(-c4ccncc4)c3c2)S1 [GSK-1059615] | > 30 µM (inactive) | > 30 µM (inactive) | > 30 µM (inactive) | > 30 µM (inactive) | > 30 µM (inactive) | > 30 µM (inactive) | > 30 µM (inactive) | > 30 µM (inactive) | –
3 | Cn1cc(-c2ccc3nnc(C(F)(F)c4ccc5ncccc5c4)n3n2)cn1 [JNJ-38877605] | > 30 µM (inactive) | > 30 µM (inactive) | > 30 µM (inactive) | > 30 µM (inactive) | > 30 µM (inactive) | > 30 µM (inactive) | > 30 µM (inactive) | > 30 µM (inactive) | –
4 | CC(C)Nc1cc(-c2c[nH]c(C(=O)N[C@H](CO)c3cccc(Cl)c3)c2)c(Cl)cn1 [ULIXERTINIB] | > 30 µM (inactive) | > 30 µM (inactive) | > 30 µM (inactive) | > 30 µM (inactive) | > 30 µM (inactive) | > 30 µM (inactive) | > 30 µM (inactive) | > 30 µM (inactive) | –
5 | Cc1ccc(-n2nc(C(C)(C)C)cc2NC(=O)NCc2cc(F)ccc2Oc2ccc3c(cnn3CCO)c2)cc1 [PEXMETINIB] | > 30 µM (inactive) | > 30 µM (inactive) | > 30 µM (inactive) | > 30 µM (inactive) | > 30 µM (inactive) | > 30 µM (inactive) | – | > 30 µM (inactive) | 4.55
6 | CC(=O)Nc1cccc(-n2c(=O)n(C3CC3)c(=O)c3c(Nc4ccc(I)cc4F)n(C)c(=O)c(C)c32)c1 [TRAMETINIB] | > 30 µM (inactive) | > 30 µM (inactive) | > 30 µM (inactive) | > 30 µM (inactive) | > 30 µM (inactive) | > 30 µM (inactive) | > 30 µM (inactive) | > 30 µM (inactive) | –
7 | COC(=O)N[C@@H](C)CNc1nccc(-c2cn(C(C)C)nc2-c2cc(Cl)cc(NS(C)(=O)=O)c2F)n1 [ENCORAFENIB] | > 30 µM (inactive) | > 30 µM (inactive) | > 30 µM (inactive) | > 30 µM (inactive) | > 30 µM (inactive) | > 30 µM (inactive) | > 30 µM (inactive) | > 30 µM (inactive) | –
8 | O=C(Nc1ccc(-c2ccnc(Nc3ccc(N4CCOCC4)cc3)n2)cc1)C1CCCN1 (stereo not drawn) [XL-019] | > 30 µM (inactive) | > 30 µM (inactive) | > 30 µM (inactive) | > 30 µM (inactive) | > 30 µM (inactive) | > 30 µM (inactive) | > 30 µM (inactive) | > 30 µM (inactive) | –
9 | CCn1c(=O)c(-c2cc[nH]n2)cc2c(C)nc(N)nc21 [VOXTALISIB] | > 30 µM (inactive) | > 30 µM (inactive) | > 30 µM (inactive) | > 30 µM (inactive) | > 30 µM (inactive) | > 30 µM (inactive) | > 30 µM (inactive) | > 30 µM (inactive) | –
10 | Cc1ccc(NC(=O)c2ccc(CN3CC[C@H](N(C)C)C3)c(C(F)(F)F)c2)cc1Nc1nccc(-c2cncnc2)n1 [BAFETINIB] | > 30 µM (inactive) | > 30 µM (inactive) | > 30 µM (inactive) | > 30 µM (inactive) | > 30 µM (inactive) | > 30 µM (inactive) | 4.55 µM (active) | > 30 µM (inactive) | –
11 | COc1ccc(-c2ccc3c(N4CCOC[C@@H]4C)nc(N4CCOC[C@@H]4C)nc3n2)cc1CO [AZD-8055] | > 30 µM (inactive) | > 30 µM (inactive) | > 30 µM (inactive) | > 30 µM (inactive) | > 30 µM (inactive) | > 30 µM (inactive) | > 30 µM (inactive) | > 30 µM (inactive) | –
12 | Cn1cc(-c2ccc(F)c(C(F)(F)F)c2)nc1C1CCN(c2ncnc3[nH]ncc23)CC1 [LY-2584702] | > 30 µM (inactive) | > 30 µM (inactive) | > 30 µM (inactive) | > 30 µM (inactive) | > 30 µM (inactive) | > 30 µM (inactive) | > 30 µM (inactive) | > 30 µM (inactive) | –
13 | N[C@@H]1CCCN(c2c(/C=C3\SC(=O)NC3=O)cccc2-c2ccccc2)C1 | > 30 µM (inactive) | > 30 µM (inactive) | > 30 µM (inactive) | > 30 µM (inactive) | > 30 µM (inactive) | > 30 µM (inactive) | > 30 µM (inactive) | > 30 µM (inactive) | –
14 | CNC(=O)CN1CCC(Oc2cc3c(Nc4cccc(Cl)c4F)ncnc3cc2OC)CC1 [SAPITINIB] | > 30 µM (inactive) | > 30 µM (inactive) | 2.2 µM (active) | > 30 µM (inactive) | > 30 µM (inactive) | > 30 µM (inactive) | > 30 µM (inactive) | > 30 µM (inactive) | –
15 | COc1cc(CCc2cc(NC(=O)c3ccc(N4C[C@@H](C)N[C@@H](C)C4)cc3)n[nH]2)cc(OC)c1 [AZD-4547] | > 30 µM (inactive) | > 30 µM (inactive) | > 30 µM (inactive) | > 30 µM (inactive) | > 30 µM (inactive) | 0.006 µM (active) | > 30 µM (inactive) | > 30 µM (inactive) | –
16 | CNC(=O)c1ccc(C)c(-n2c(C)cc(OCc3ccc(F)cc3F)c(Br)c2=O)c1 [PH-797804] | > 30 µM (inactive) | > 30 µM (inactive) | > 30 µM (inactive) | > 30 µM (inactive) | > 30 µM (inactive) | > 30 µM (inactive) | > 30 µM (inactive) | > 30 µM (inactive) | –
